According to article PMC3038857, “Using Nuclear Receptor Activity to Stratify Hepatocarcinogens” (PLoS ONE, 2011):
Like-named read-outs stand apart in the source and are kept apart here.

Tests used:
[1] = system: CYP3A4; assay: CLZD_CYP3A4: Change in expression of CYP3A4 (primary human hepatocytes); type: cell-based; conditions: 24 hr
Experimental: (§1) This is a collection of multiplexed gene expression assays focused on Phase I and II xenobiotic metabolizing enzymes and transporters. Human primary cell cultures were treated with chemicals at 5 concentrations (0.004-40 [drawing 42] M) for 6, 24 and 48 hr. Concentration- and time-response profiles of chemicals were measured by the expression of key nuclear receptor target genes, activities of CYP1A enzymes (EROD), and cell morphology. Fourteen gene targets were monitored by quantitative nuclease protection assay including: six representative cytochrome P-450 genes, four hepatic transporters, three Phase II conjugating enzymes, and one endogenous metabolism gene involved in cholesterol synthesis. The target genes associated with nuclear receptor pathways are as follows: [drawing 43] and [drawing 44] with [drawing 45]; [drawing 46] , [drawing 47] , [drawing 48] , [drawing 49] , [drawing 50] and [drawing 51] with [drawing 52]; [drawing 53] , [drawing 54] , [drawing 55] and [drawing 56] with [drawing 57]; [drawing 58] with [drawing 59]; and [drawing 60] with [drawing 61] . Assays were run in primary human hepatocyte cultures by CellzDirect Invitrogen Inc. (Durham, NC), in collaboration with EPA.
(§2) Multiplexed Gene Expression in Human Primary Hepatocytes: This is a collection of multiplexed gene expression assays focused on Phase I and II metabolic enzymes and transporters. […] Fourteen gene targets were monitored by quantitative nuclease protection assay: six representative cytochrome P450 genes, four hepatic transporters, three Phase II conjugating enzymes, and one endogenous metabolism gene involved in cholesterol synthesis. Cells were exposed at 5 concentrations (0.004-40 µM) for 6, 24 or 48 hr. Gene targets are sentinels for five nuclear receptor signaling pathways: AhR, CAR, PXR, FXR, and PPARα. All gene are associated with nuclear receptor pathways: CYP1A1 and CYP1A2 with AHR; ABCB1, ABCG2, CYP2B6, CYP2C9, CYP2C19 and UGT1A1 with CAR; CYP3A4, GSTA2, SLCO1B1 and SULT2A1 with PXR; HMGCS2 with PPARA; and ABCB11 with FXR. […] Detailed description of the methods, data and analysis methods for this dataset will be presented in a separate publication.

[2] = system: Mouse Liver; conditions: ref ToxRefDB, cited from earlier work
[3] = system: CYP2B6; assay: CLZD_CYP2B6: Change in expression of CYP2B6 (primary human hepatocytes); type: cell-based; conditions: 24 hr
In short: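 Read-out: mRNA change by multiplexed quantitative nuclease protection assay. Primary human hepatocytes; 5 concentrations, 0.004-40 µM; exposures 6, 24, 48 hr.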

[4] = target: T1, PXR (NR1I2) (Homo sapiens, UniProt O75469); assay: ATG_PXR_TRANS: Factorial reporter gene assay (HepG2); type: cell-based; parameters: endogenous in cells; host or cells: HepG2; conditions: HepG2
T1 sequence (O75469 1-434): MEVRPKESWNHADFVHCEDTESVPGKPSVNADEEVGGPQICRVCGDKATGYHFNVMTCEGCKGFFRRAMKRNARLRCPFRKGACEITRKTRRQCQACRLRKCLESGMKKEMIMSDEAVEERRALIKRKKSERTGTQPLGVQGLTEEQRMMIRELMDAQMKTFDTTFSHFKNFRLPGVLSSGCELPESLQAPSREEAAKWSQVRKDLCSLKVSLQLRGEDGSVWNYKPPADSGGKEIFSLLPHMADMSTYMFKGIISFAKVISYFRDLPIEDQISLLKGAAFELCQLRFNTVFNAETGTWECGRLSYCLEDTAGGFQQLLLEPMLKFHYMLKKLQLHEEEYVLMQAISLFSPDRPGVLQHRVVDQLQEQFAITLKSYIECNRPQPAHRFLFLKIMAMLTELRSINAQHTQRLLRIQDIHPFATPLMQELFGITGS
Experimental: (§3) A multiple reporter transcription unit (MRTU) library consisting of 48 transcription factor binding sites was transfected into the HepG2 human liver hepatoma cell line. In addition to the cis-acting reporter genes (CIS), a modification of the approach was used to generate a trans-system (TRANS) with a mammalian one-hybrid assay consisting of an additional 25 MRTU library reporting the activity of nuclear receptor super-family members. […] These assays were performed by Attagene Inc. (Morrisville NC) under contract to EPA.
(§4) In addition to the cis-acting reporter genes (CIS), a modification of the approach was used to generate a trans-system (TRANS) with a mammalian one-hybrid assay consisting of an additional 25 MRTU library reporting the activity of nuclear receptor super-family members. […] Chemicals were then tested in the CIS and TRANS assays at seven concentrations starting at the MTC and followed by three-fold serial dilutions. These assays were performed by Attagene Inc. (Morrisville NC) under contract to EPA. Detailed description of the methods, data and analysis methods for this dataset will be presented in a separate publication.

[5] = system: Mouse Liver; conditions: ref ToxRefDB, cited from earlier work; remark: listed apart in the source
[6] = system: Rat Liver; conditions: ref ToxRefDB, cited from earlier work
[7] = system: CYP1A2; assay: CLZD_CYP1A2: Change in expression of CYP1A2 (primary human hepatocytes); type: cell-based; conditions: 24 hr
Experimental: as §1, §2

[8] = system: Rat Liver; conditions: ref ToxRefDB, cited from earlier work; remark: listed apart in the source
[9] = system: Rat Liver; conditions: ref ToxRefDB, cited from earlier work; remark: listed apart in the source
[10] = target: T2, PPARG (peroxisome proliferator-activated receptor gamma) (Homo sapiens, UniProt P37231); assay: ATG_PPARg_TRANS: Factorial reporter gene assay (HepG2); type: cell-based; conditions: HepG2
T2 construct: expressed in transfected cells; host or cells: HepG2
T2 sequence (P37231 1-505): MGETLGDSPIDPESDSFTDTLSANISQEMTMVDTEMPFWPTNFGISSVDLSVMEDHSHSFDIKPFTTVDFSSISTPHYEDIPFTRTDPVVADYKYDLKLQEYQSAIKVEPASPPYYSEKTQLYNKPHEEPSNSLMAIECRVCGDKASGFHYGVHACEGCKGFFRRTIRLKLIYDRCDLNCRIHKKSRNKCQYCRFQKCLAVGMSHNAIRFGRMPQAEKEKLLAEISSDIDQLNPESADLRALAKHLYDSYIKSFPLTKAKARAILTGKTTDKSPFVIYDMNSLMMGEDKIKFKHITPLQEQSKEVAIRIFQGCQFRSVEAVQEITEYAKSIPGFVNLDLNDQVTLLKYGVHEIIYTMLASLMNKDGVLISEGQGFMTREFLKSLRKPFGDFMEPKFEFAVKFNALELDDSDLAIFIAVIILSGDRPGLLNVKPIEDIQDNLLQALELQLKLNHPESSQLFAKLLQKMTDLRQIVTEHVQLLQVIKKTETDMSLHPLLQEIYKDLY
Experimental: as §3, §4

[11] = target: T1, PXR (NR1I2); assay: ATG_PXRE_CIS: Factorial reporter gene assay (HepG2); type: cell-based; parameters: endogenous in cells; host or cells: HepG2; conditions: HepG2
In short: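 HepG2 cells were transfected with a multiple reporter transcription unit (MRTU) library of 48 transcription factor binding sites for the cis-acting PXRE assay. The ERRg, FXR and PPARg assays used a trans mammalian one-hybrid system with a further 25-unit nuclear receptor MRTU library. Chemicals were tested at seven concentrations, from the MTC downward in three-fold steps.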

[12] = system: Mouse Liver; conditions: ref ToxRefDB, cited from earlier work; remark: listed apart in the source
[13] = system: CYP1A1; assay: CLZD_CYP1A1: Change in expression of CYP1A1 (primary human hepatocytes); type: cell-based; conditions: 24 hr
Experimental: as §1, §2

Structure (SMILES)	CLZD_CYP3A4_24 [1]	CHR_Mouse_Liver_3_NeoplasticLesion ([2]; mouse, chronic study)	CLZD_CYP2B6_24 [3]	CHR_Mouse_Liver_1_AnyLesion ([5]; mouse, chronic study)	CHR_Rat_Liver_1_AnyLesion ([6]; rat, chronic study)	CLZD_CYP1A2_24 [7]	CHR_Rat_Liver_3_NeoplasticLesion ([8]; rat, chronic study)	CHR_Rat_Liver_2_PreneoplasticLesion ([9]; rat, chronic study)	ATG_PXRE_CIS [11]	CHR_Mouse_Liver_2_PreneoplasticLesion ([12]; mouse, chronic study)	CHR_Mouse_Liver_3_NeoplasticLesion ([2]; chronic mouse study, liver)	CHR_Mouse_Liver_1_AnyLesion ([5]; chronic mouse study, liver)	CHR_Mouse_Liver_2_PreneoplasticLesion ([12]; chronic mouse study, liver)	further results
CCCCOCCOCCOCc1cc2c(cc1CCC)OCO2 [r246]	5.527	6	5.592	6	6	5.617	0	6	5.42	6	–	–	–	ATG_PXR_TRANS [4]: 4.824; ATG_PPARg_TRANS [10]: 4.602
COC(=O)c1ccccc1S(=O)(=O)NC(=O)Nc1nc(OC(F)F)cc(OC(F)F)n1 [r250]	–	6	5.187	6	0	–	0	0	4.469	6	–	–	–	–
CNC(=O)Oc1ccccc1OC(C)C [r263]	5.055	6	5.434	6	0	–	0	0	–	6	–	–	–	–
CC1=NNC(=O)N(/N=C/c2cccnc2)C1 [r269]	–	–	–	–	–	–	–	–	–	–	–	–	–	CHR_Mouse_Liver_3_NeoplasticLesion ([2]; chronic study, mouse liver): 6; CHR_Mouse_Liver_1_AnyLesion ([5]; chronic study, mouse liver): 6; CHR_Rat_Liver_1_AnyLesion ([6]; chronic study, rat liver): 6; CHR_Rat_Liver_3_NeoplasticLesion ([8]; chronic study, rat liver): 6; CHR_Rat_Liver_2_PreneoplasticLesion ([9]; chronic study, rat liver): 6; CHR_Mouse_Liver_2_PreneoplasticLesion ([12]; chronic study, mouse liver): 6
Clc1cccc(C(Cl)(Cl)Cl)n1 [row 221]	–	–	5.088	–	–	–	–	–	4.292	–	6	6	6	CHR_Rat_Liver_1_AnyLesion ([6]; chronic rat study, liver): 6; CHR_Rat_Liver_3_NeoplasticLesion ([8]; chronic rat study, liver): 0; CHR_Rat_Liver_2_PreneoplasticLesion ([9]; chronic rat study, liver): 0
CNc1cnn(-c2cccc(C(F)(F)F)c2)c(=O)c1Cl [row 222]	5.266	–	4.975	–	–	4.939	–	–	4.62	–	6	6	6	CLZD_CYP1A1_24 [13]: 5.028
